Converted amounts (≈) assume the structure as drawn. Like-named read-outs stand apart in the source and are kept apart here.
Columns and labels:
[1] = system: Propionibacterium acnes 79; assay: Susceptibility of anaerobic bacteria, agar dilution; type: cell-based; conditions: Cutibacterium acnes, 79, 24 h, read-out: 24 Hr. Minimum Inhibitory Concentration
[2] = system: Bacteroides fragilis sp. vulgatus 1211; assay: as above; type: cell-based; conditions: Bacteroides fragilis, 24 h, read-out: 24 Hr. Minimum Inhibitory Concentration
[3] = system: Bacteroides fragilis sp. vulgatus 1563; assay: as above; type: cell-based; conditions: 24 h; Bacteroides fragilis sp. vulgatus 1563; read-out: 24 Hr. Minimum Inhibitory Concentration
[4] = system: Clostridium septicum 1128; assay: as above; type: cell-based; conditions: 24 h, read-out: 24 Hr. Minimum Inhibitory Concentration
Procedure: (§1) The susceptibility of anaerobic bacteria, both gram positive and gram negative, to a representative number of the novel compounds of this application was determined using the agar dilution method. The bacteria used were isolated from patients hospitalized at the Indiana University Medical Center. The isolates were identified in the anaerobe laboratory of the Medical Center by the criteria established by Dowell et al., Laboratory Methods in Anaerobic Bacteriology. Public Health Serv. Publ. No. 1803 (1968) [Center for Disease Control, Atlanta, Ga.]; and by Smith et al., The Pathogenic Anaerobic Bacteria, pages 96-136 (1968) [Charles C. Thomas, Publisher, Springfield, Ill.]. All the organisms were maintained in chopped meat glucose medium (Scott Labs) at room temperature.
(§2) The method used for the agar dilution tests was based on the studies of Sutter et al., Antimicrob. Ag. Chemother. 3, 188-193 (1973). The strains of anaerobic bacteria were grown in 16 × 120 mm. tubes for 16 to 18 hours in Thioglycolate medium without indicator--135C (Becton, Dickinson and Co.), to which was added 5 mcg. of hemin per milliliter prior to autoclaving, plus 1 mg. of sodium bicarbonate and 0.1 mcg. of filter-sterilized menadione per milliliter after autoclaving. The growth tubes for the bacteria Veillonella alcalescens were additionally supplemented with 5 mg. of sodium lactate per milliliter. The strains were adjusted to the turbidity of the No. 1 McFarland standard in Thioglycolate medium without indicator--135C containing an additional 0.13 percent Bacto-agar (Difco). Each strain was then applied to the surface of the petri plate (100 mm. × 15 mm.) by means of a replicator.
(§3) For the agar dilution studies, two-fold dilutions of the test compounds were prepared in deionized water to which was then added laked sheep blood and filter-sterilized menadione so the concentrations after the agar dilution were 5 percent and 10 mcg./ml. respectively. An equal volume of double strength Brucella agar (Becton, Dickinson and Co.) was mixed with each dilution in a water bath held at 50°C. and then poured onto the petri plates.
(§4) All of the procedures were done inside a plastic glove box, except for the incubation of the growth tubes and the pouring of the plates. After the plates hardened, they were put inside the glove box for a minimum of two hours before they were inoculated. Generally, the glove box procedures of Aranki et al., Applied Microbiology 17, 568-576 (1969), were followed, but the following modifications were used. Dry materials were introduced into the glove box by evacuating the lock to 28 inches of mercury and filling once with nitrogen gas, followed by evacuating in the same manner and filling with an 80 percent nitrogen plus 10 percent CO2 plus 10 percent hydrogen gas mixture. Liquid media and agar plates were introduced into the glove box by evacuating the lock to 10 inches of mercury and filling with gas four times. The nitrogen gas was used to fill the lock for the first two cycles of evacuation, with the gas mixture described above used for the final two fillings.
(§5) All the plates were incubated at 37°C. in Gas Pak jars (Becton, Dickinson and Co.) containing palladium-coated alumina catalysts (reactivated after each use). The results of the agar dilution tests were read after about 24 hours of incubation. The minimum inhibitory concentration (MIC) was recorded as the lowest concentration of test compound at which there was no growth.
(§6) The results of these in vitro tests are recorded in Charts 11 and 12 which follow. The test compounds are identified in the same manner as in the previous experiments. The antibiotics cephalothin and erythromycin were also run simultaneously with the novel compounds of this application, for comparison purposes, and the results are included in Charts 11 and 12 below.

[5] = system: Clostridium septicum bovine; assay: as above; type: cell-based; conditions: 24 h, read-out: 24 Hr. Minimum Inhibitory Concentration
Procedure: as §1, §2, §3, §4, §5, §6

[6] = system: Eubacterium aerofaciens 1235; assay: as above; type: cell-based; conditions: Collinsella aerofaciens, 1235, 24 h, read-out: 24 Hr. Minimum Inhibitory Concentration
[7] = system: Bacteroides fragilis sp. fragilis 1877; assay: as above; type: cell-based; conditions: Bacteroides fragilis, 24 h, read-out: 24 Hr. Minimum Inhibitory Concentration
[8] = system: Peptococcus anaerobius 1428; assay: as above; type: cell-based; conditions: 24 h, read-out: 24 Hr. Minimum Inhibitory Concentration
[9] = system: Fusobacterium symbiosum 1470; assay: as above; type: cell-based; conditions: Fusobacterium, 1470, 24 h, read-out: 24 Hr. Minimum Inhibitory Concentration
[10] = system: Fusobacterium necrophorum 13859; assay: as above; type: cell-based; conditions: Fusobacterium necrophorum, 13859, 24 h, read-out: 24 Hr. Minimum Inhibitory Concentration
[11] = system: Bacteroides fragilis sp. thetaiotaomicron 1438; assay: as above; type: cell-based; conditions: Bacteroides fragilis, 24 h, read-out: 24 Hr. Minimum Inhibitory Concentration
[12] = system: Veillonella alcalescens 1; assay: as above; type: cell-based; conditions: Veillonella parvula, 1, 24 h, read-out: 24 Hr. Minimum Inhibitory Concentration
Clostridium ramosum 1313 = assay: as above; type: cell-based; conditions: Thomasclavelia ramosa, 1313, 24 h, read-out: 24 Hr. Minimum Inhibitory Concentration
[13] = system: Propionibacterium acnes 44; assay: as above; type: cell-based; conditions: Cutibacterium acnes, 24 h; Propionibacterium acnes 44; read-out: 24 Hr. Minimum Inhibitory Concentration
[14] = system: Clostridium innocuum 1373; assay: as above; type: cell-based; conditions: [Clostridium] innocuum, 1373, 24 h, read-out: 24 Hr. Minimum Inhibitory Concentration
[15] = system: Clostridium perfringens 81; assay: microbe, parasite or virus in culture; type: cell-based; conditions: Clostridium perfringens, 81, 24 h, read-out: 24 Hr. Minimum Inhibitory Concentration
[16] = system: Bacteroides fragilis sp. fragilis 1936B; assay: Susceptibility of anaerobic bacteria, agar dilution; type: cell-based; conditions: Bacteroides fragilis, 24 h, read-out: 24 Hr. Minimum Inhibitory Concentration
Actinomyces bovis 13684 = assay: as above; type: cell-based; conditions: Actinomyces bovis, 13684, 24 h, read-out: 24 Hr. Minimum Inhibitory Concentration
[17] = system: Peptostreptococcus intermedius 1264; assay: as above; type: cell-based; conditions: 24 h; Peptostreptococcus intermedius 1264; read-out: 24 Hr. Minimum Inhibitory Concentration
Salmonella typhimurium = assay: Control of infections caused by Salmonella typhimurium in chickens, subcutaneous (Experiment 2); type: in vivo; conditions: Salmonella enterica, sc, 144 h, 6 days, read-out: Survival Ratio (converted); for responders at 7.5 mg/kg: 7.5 mg./kg. subcutaneous; for responders at 15 mg/kg: 15 mg./kg. subcutaneous; for responders at 30 mg/kg: 30 mg./kg. subcutaneous; for responders at 60 mg/kg: 60 mg./kg. subcutaneous
Procedure: The efficacy of the novel compounds in the control of infections caused by Salmonella typhimurium in chickens was evaluated in the following manner.
The test was carried out using day-old chicks weighing approximately 35 g. each. The chicks were divided into groups of 5 chicks per each dosage level. A portion of the chicks received the test compound which was suspended in 0.2 ml. of polyethylene glycol 200 and administered subcutanusly in the neck. […] All the chicks were challenged with a 1:200 dilution of a culture of the organism, 0.1 ml. of the dilution being injected into each chick in the leg intramuscularly. […] The test compounds are identified in the same manner as set forth in Experiment 1.
In the chart, column 1 lists the compounds tested; column 2, the dosage of test compound in mg./kg.; and column 3, the survival ratio.

Pasteurella multocida = assay: Efficacy against Pasteurella multocida infections in mice when administered by injection (Experiment 1); type: in vivo, Swiss mice; conditions: ip; for responders at 5 mg/kg: 5.0 mg./kg. i.p.; for responders at 2.5 mg/kg: 2.5 mg./kg. i.p.; for responders at 7.5 mg/kg: 7.5 mg./kg. i.p.
Procedure: The efficacy of the novel compounds against Pasteurella multocida infections in mice when administered by injection was studied.
Female Swiss mice weighing from 15 to about 20 g. were used. The test compound, 5.0 mg., was weighed out and dissolved in 0.5 ml. of dimethyl sulfoxide, and this solution was added to 9.5 ml. of sodium carboxymethylcellulose suspension. Groups of five mice each were injected intraperitoneally with 0.1 ml. each of the above-prepared test composition. This preparation gave a test rate of 2.5 mg. per kilo of body weight of mouse. The compounds were tested at 2.5, 5.0, or 7.5 mg. per kilo of body weight of mouse, and the test preparations for rates of 5.0 and 7.5 mg./kg. were prepared in a similar manner. Immediately after receiving the test compound, the mice were challenged using log10 dilutions of 10^-^4, 10^-^5, 10^-^6, and 10^-^7 of a 16 to 20-hour tryptose broth culture of Pasteurella multocida at 0.1 ml. per mouse subcutaneously. Similar groups of nontreated control mice were also challenged, the challenge being administered subcutaneously. The groups of mice were observed daily for mortality and the total mortality in treated groups compared with that which occurred in the nonmedicated control groups. Each test compound is identified by the number of the example describing its preparation.
In the chart, column 1 lists the test compound; column 2, the dosage of test compound in mg./kg. of mouse body weight; column 3, the dilution of the challenge organism; and column 4, the ratio of the number of mice surviving the test at each dosage and challenge dilution to the number of mice tested at each dosage and challenge dilution, called the survival ratio.

[18] = challenge dilution 10^-^4, read-out: Survival Ratio (converted)
[19] = challenge dilution 10^-^5, read-out: Survival Ratio (converted)
[20] = challenge dilution 10^-^6, read-out: Survival Ratio (converted)

CN(C)C=Nc1c(C#N)c(-c2ncc([N+](=O)[O-])n2C)nn1C [Compound 9, 5-[[(Dimethylamino)methylene]amino]-1-methyl-3-(1-methyl-5-nitro-2-imidazolyl)pyrazole-4-carbonitrile]
MIC [1]: < 0.125 mg/L | MIC [2]: < 0.125 mg/L | MIC [3]: 0.25 mg/L (≈ 0.827 µM) | MIC [4]: < 0.125 mg/L | MIC [5]: < 0.125 mg/L | MIC [6]: < 0.125 mg/L | MIC [7]: < 0.125 mg/L | MIC [8]: < 0.125 mg/L | MIC [9]: < 0.125 mg/L | MIC [10]: < 0.125 mg/L | MIC [11]: < 0.125 mg/L | MIC [12]: < 0.125 mg/L | MIC (Clostridium ramosum 1313): < 0.125 mg/L | MIC [13]: > 32 mg/L | MIC [14]: < 0.125 mg/L | MIC [15]: < 0.125 mg/L | MIC [16]: < 0.125 mg/L | MIC (Actinomyces bovis 13684): < 0.125 mg/L | MIC [17]: > 32 mg/L

CCOC(C)=Nc1c(C#N)c(-c2ncc([N+](=O)[O-])n2C)nn1C [Compound 13, Ethyl N-[4-cyano-1-methyl-3-(1-methyl-5-nitro-2-imidazolyl)pyrazol-5-yl]acetimidate]
responders at 7.5 mg/kg (Salmonella typhimurium): 53.3% | responders at 15 mg/kg (Salmonella typhimurium): 40% | responders at 30 mg/kg (Salmonella typhimurium): 55% | responders at 60 mg/kg (Salmonella typhimurium): 65%

Cn1nc(-c2ncc([N+](=O)[O-])n2C)c(C#N)c1N=COCCCl [Compound 13B, 2-Chloroethyl N-[4-cyano-1-methyl-3-(1-methyl-5-nitro-2-imidazolyl)pyrazol-5-yl]formimidate]
responders at 7.5 mg/kg (Salmonella typhimurium): 10% | responders at 15 mg/kg (Salmonella typhimurium): 65% | responders at 30 mg/kg (Salmonella typhimurium): 50% | responders at 60 mg/kg (Salmonella typhimurium): 70% | responders at 5 mg/kg (Pasteurella multocida; [18]): 90% | responders at 5 mg/kg (Pasteurella multocida; [19]): 70% | responders at 5 mg/kg (Pasteurella multocida; [20]): 80%

CC(=O)N(C(C)=O)c1c(C#N)c(-c2ncc([N+](=O)[O-])n2C)nn1C [Compound 5, N-[4-Cyano-1-methyl-3-(1-methyl-5-nitro-2-imidazolyl)pyrazol-5-yl]diacetamide]
responders at 7.5 mg/kg (Salmonella typhimurium): 0% | responders at 15 mg/kg (Salmonella typhimurium): 0% | responders at 30 mg/kg (Salmonella typhimurium): 40% | responders at 60 mg/kg (Salmonella typhimurium): 45% | responders at 2.5 mg/kg (Pasteurella multocida; [18]): 100% | responders at 2.5 mg/kg (Pasteurella multocida; [19]): 90% | responders at 2.5 mg/kg (Pasteurella multocida; [20]): 100%

CC(C)COC=Nc1c(C#N)c(-c2ncc([N+](=O)[O-])n2C)nn1C [Compound 13C, Isobutyl N-[4-cyano-1-methyl-3-(1-methyl-5-nitro-2-imidazolyl)pyrazol-5-yl]formimidate]
responders at 7.5 mg/kg (Salmonella typhimurium): 0% | responders at 15 mg/kg (Salmonella typhimurium): 46.7% | responders at 30 mg/kg (Salmonella typhimurium): 53.3% | responders at 60 mg/kg (Salmonella typhimurium): 66.7% | responders at 2.5 mg/kg (Pasteurella multocida; [18]): 40% | responders at 2.5 mg/kg (Pasteurella multocida; [19]): 30% | responders at 2.5 mg/kg (Pasteurella multocida; [20]): 70% | responders at 5 mg/kg (Pasteurella multocida; [18]): 40% | responders at 5 mg/kg (Pasteurella multocida; [19]): 80% | responders at 5 mg/kg (Pasteurella multocida; [20]): 90% | responders at 7.5 mg/kg (Pasteurella multocida; challenge dilution 10^-^4, read-out: Survival Ratio): 80% | responders at 7.5 mg/kg (Pasteurella multocida; challenge dilution 10^-^5, read-out: Survival Ratio): 100% | responders at 7.5 mg/kg (Pasteurella multocida; challenge dilution 10^-^6, read-out: Survival Ratio): 100%

Reference: patent US3980794A, “Method for promoting growth of poultry with 3-(5-nitro-2-imidazolyl)pyrazoles” (Eli Lilly and Company, priority 1975, dated 1976)
